Assay results reported in patent US11000033B2, “Ketone or oxime compound, and herbicide” (NISSAN CHEMICAL CORPORATION, priority 2014, dated 2021).

Assays:
Format in all cases: in vivo
Monochoria vaginalis = assay: Test Example 1: herbicidal activity, application before weed generation in submerged conditions (symbol C); conditions: application herbicide amount 320 g/ha
How it was run: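 Paddy pre-emergence test. Formulated emulsion, water-diluted to a predetermined rate, is applied to floodwater on sowing day; rice transplanted at 2.5 leaves. Effect read at 3 weeks on a 0–5 herbicidal-ratio scale.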

transplanted rice plant = assay: Test Example 1: effect on crop, application before weed generation in submerged conditions (symbol a); conditions: application herbicide amount 320 g/ha
How it was run: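 Alluvial soil pots flooded to 4 cm water, sown with Echinochloa oryzacola, Scirpus juncoides and Monochoria vaginalis, then transplanted with 2.5 leaf stage rice seedlings; pre-emergence application. Greenhouse 25° C. to 30° C.; scored 0–5 by herbicidal ratio 3 weeks after application.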

Leptochloa chinensis = assay: Test Example 3: herbicidal effect by foliage application, Wagner pot (symbol D); conditions: application herbicide amount 320 g/ha
How it was run: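 Steps: fill pot with alluvial soil; add water to 0.1–0.5 cm depth; sow weed and rice seed; grow 14 days at 25–30 °C; spray diluted emulsion over the leaves; rate effect after 3 weeks.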

Setaria viridis = assay: Test Example 4: herbicidal effect by soil treatment (symbol G); conditions: 320 g/ha
How it was run: (§1)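 Seeds were sown in sterilized diluvial soil, covered with about 1.5 cm of soil, and the soil surface was sprayed with a water-diluted emulsion of the compound at a predetermined rate. Plants grew in a greenhouse at 25° C. to 30° C.; effects were scored visually 3 weeks after application.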

Avena fatua = assay: Test Example 4: herbicidal effect by soil treatment (symbol I); conditions: 320 g/ha
How it was run: as §1

Alopecurus myosuroides = assay: Test Example 4: herbicidal effect by soil treatment (symbol J); conditions: 320 g/ha
How it was run: as §1

Apera spica-venti = assay: Test Example 4: herbicidal effect by soil treatment (symbol L); conditions: 320 g/ha
How it was run: as §1

Chenopodium album [1] = assay: Test Example 4: herbicidal effect by soil treatment (symbol O); conditions: 320 g/ha
How it was run: as §1

Stellaria media [2] = assay: Test Example 4: herbicidal effect by soil treatment (symbol P); conditions: 320 g/ha
How it was run: as §1

Veronica persica = assay: Test Example 4: herbicidal effect by soil treatment (symbol R); conditions: 320 g/ha
How it was run: as §1

[3] = test system: Echinochloa crus-galli var. crus-galli; assay: Test Example 5: herbicidal effect by foliage application, plastic box (symbol H); conditions: 320 g/ha, 3 weeks after application
How it was run: (§2)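 Sowing in sterilized diluvial soil, 14 days' greenhouse growth at 25° C. to 30° C., then uniform small-sprayer foliar application of aqueous emulsion dilution; plants scored three weeks afterwards.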

Lolium multiflorum Lam. = assay: Test Example 5: herbicidal effect by foliage application, plastic box (symbol K); conditions: 320 g/ha, 3 weeks after application
How it was run: as §2

Abutilon theophrasti = assay: Test Example 5: herbicidal effect by foliage application, plastic box (symbol M); conditions: 320 g/ha, 3 weeks after application
How it was run: as §2

Amaranthus retroflexus = assay: Test Example 5: herbicidal effect by foliage application, plastic box (symbol N); conditions: 320 g/ha, 3 weeks after application
How it was run: as §2

Chenopodium album [4] = assay: Test Example 5: herbicidal effect by foliage application, plastic box (symbol O); conditions: 320 g/ha, 3 weeks after application
How it was run: as §2

Stellaria media [5] = assay: Test Example 5: herbicidal effect by foliage application, plastic box (symbol P); conditions: 320 g/ha, 3 weeks after application
How it was run: as §2

corn = assay: Test Example 5: effect on crop by foliage application, plastic box (symbol c); conditions: 320 g/ha, 3 weeks after application
How it was run: (§3)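 In a plastic box 7 cm deep filled with sterilized diluvial soil, seeds of crops and weeds such as Digitaria ciliaris, Avena fatua and Amaranthus retroflexus are sown in spots and covered with about 1.5 cm of soil before greenhouse growth at 25–30° C.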

rapeseed = assay: Test Example 5: effect on crop by foliage application, plastic box (symbol g); conditions: 320 g/ha, 3 weeks after application
How it was run: as §3

Row | SMILES | Herbicidal effect grade, C: Monochoria vaginalis (Monochoria vaginalis) | Effect grade on crop, a: transplanted rice plant (transplanted rice plant) | herbicidal effect on D (Leptochloa chinensis), grade 0-5 (Leptochloa chinensis) | G: Setaria viridis, herbicidal effect grade (Setaria viridis) | I: Avena fatua, herbicidal effect grade (Avena fatua) | J: Alopecurus myosuroides, herbicidal effect grade (Alopecurus myosuroides) | L: Apera spica-venti, herbicidal effect grade (Apera spica-venti) | O: Chenopodium album, herbicidal effect grade (Chenopodium album [1]) | P: Stellaria media, herbicidal effect grade (Stellaria media [2]) | R: Veronica persica, herbicidal effect grade (Veronica persica) | H: Echinochloa crus-galli var. crus-galli, herbicidal effect (criteria 0-5) [3] | K: Lolium multiflorum Lam., herbicidal effect (criteria 0-5) (Lolium multiflorum Lam.) | M: Abutilon theophrasti, herbicidal effect (criteria 0-5) (Abutilon theophrasti) | N: Amaranthus retroflexus, herbicidal effect (criteria 0-5) (Amaranthus retroflexus) | O: Chenopodium album, herbicidal effect (criteria 0-5) (Chenopodium album [4]) | P: Stellaria media, herbicidal effect (criteria 0-5) (Stellaria media [5]) | c: corn, effect on crop (criteria 0-5) (corn) | g: rapeseed, effect on crop (criteria 0-5) (rapeseed)
1 | CON=C(CC1CC(O)=C(c2c(C)cc(C)cc2C)C1=O)C1CCCCC1 (stereo not drawn) [1-085] | 0 (Herbicidal ratio of 5% or lower (almost no effect)) | 3 (Herbicidal ratio of 40% or higher and lower than 70%) | 4 (Herbicidal ratio of 70% or higher and lower than 90%) | 5 (Herbicidal ratio of 90% or more (almost completely withered)) | 0 (Herbicidal ratio of 5% or lower (almost no effect)) | 3 (Herbicidal ratio of 40% or higher and lower than 70%) | 3 (Herbicidal ratio of 40% or higher and lower than 70%) | 0 (Herbicidal ratio of 5% or lower (almost no effect)) | 0 (Herbicidal ratio of 5% or lower (almost no effect)) | 0 (Herbicidal ratio of 5% or lower (almost no effect)) | 5 (Herbicidal ratio of 90% or more (almost completely withered)) | 3 (Herbicidal ratio of 40% or higher and lower than 70%) | 0 (Herbicidal ratio of 5% or lower (almost no effect)) | 0 (Herbicidal ratio of 5% or lower (almost no effect)) | 0 (Herbicidal ratio of 5% or lower (almost no effect)) | 0 (Herbicidal ratio of 5% or lower (almost no effect)) | 5 (Herbicidal ratio of 90% or more (almost completely withered)) | 1 (Herbicidal ratio of 5% or higher and lower than 20%)
2 | C=CC(CC1CC(O)=C(c2c(C)cc(C)cc2C)C1=O)=NOC (stereo not drawn) [1-086] | 0 (Herbicidal ratio of 5% or lower (almost no effect)) | 3 (Herbicidal ratio of 40% or higher and lower than 70%) | 4 (Herbicidal ratio of 70% or higher and lower than 90%) | 4 (Herbicidal ratio of 70% or higher and lower than 90%) | 3 (Herbicidal ratio of 40% or higher and lower than 70%) | 3 (Herbicidal ratio of 40% or higher and lower than 70%) | 3 (Herbicidal ratio of 40% or higher and lower than 70%) | 0 (Herbicidal ratio of 5% or lower (almost no effect)) | 0 (Herbicidal ratio of 5% or lower (almost no effect)) | 0 (Herbicidal ratio of 5% or lower (almost no effect)) | 5 (Herbicidal ratio of 90% or more (almost completely withered)) | 5 (Herbicidal ratio of 90% or more (almost completely withered)) | 0 (Herbicidal ratio of 5% or lower (almost no effect)) | 0 (Herbicidal ratio of 5% or lower (almost no effect)) | 0 (Herbicidal ratio of 5% or lower (almost no effect)) | 0 (Herbicidal ratio of 5% or lower (almost no effect)) | 3 (Herbicidal ratio of 40% or higher and lower than 70%) | 3 (Herbicidal ratio of 40% or higher and lower than 70%)
3 | CON=C(C)CC1CC(OC(=O)C2=CCCC2)=C(c2c(C)cc(C)cc2C)C1=O (stereo not drawn) [1-088] | 0 (Herbicidal ratio of 5% or lower (almost no effect)) | 5 (Herbicidal ratio of 90% or more (almost completely withered)) | 5 (Herbicidal ratio of 90% or more (almost completely withered)) | 5 (Herbicidal ratio of 90% or more (almost completely withered)) | 3 (Herbicidal ratio of 40% or higher and lower than 70%) | 5 (Herbicidal ratio of 90% or more (almost completely withered)) | 5 (Herbicidal ratio of 90% or more (almost completely withered)) | 0 (Herbicidal ratio of 5% or lower (almost no effect)) | 0 (Herbicidal ratio of 5% or lower (almost no effect)) | 0 (Herbicidal ratio of 5% or lower (almost no effect)) | 5 (Herbicidal ratio of 90% or more (almost completely withered)) | 5 (Herbicidal ratio of 90% or more (almost completely withered)) | 4 (Herbicidal ratio of 70% or higher and lower than 90%) | 1 (Herbicidal ratio of 5% or higher and lower than 20%) | 2 (Herbicidal ratio of 20% or higher and lower than 40%) | 3 (Herbicidal ratio of 40% or higher and lower than 70%) | 5 (Herbicidal ratio of 90% or more (almost completely withered)) | 4 (Herbicidal ratio of 70% or higher and lower than 90%)
4 | CON=C(C)CC1CC(OC(=O)C2=C(Br)CCC2)=C(c2c(C)cc(C)cc2C)C1=O (stereo not drawn) [1-089] | 3 (Herbicidal ratio of 40% or higher and lower than 70%) | 5 (Herbicidal ratio of 90% or more (almost completely withered)) | 5 (Herbicidal ratio of 90% or more (almost completely withered)) | 5 (Herbicidal ratio of 90% or more (almost completely withered)) | 2 (Herbicidal ratio of 20% or higher and lower than 40%) | 5 (Herbicidal ratio of 90% or more (almost completely withered)) | 5 (Herbicidal ratio of 90% or more (almost completely withered)) | 0 (Herbicidal ratio of 5% or lower (almost no effect)) | 0 (Herbicidal ratio of 5% or lower (almost no effect)) | 0 (Herbicidal ratio of 5% or lower (almost no effect)) | 5 (Herbicidal ratio of 90% or more (almost completely withered)) | 5 (Herbicidal ratio of 90% or more (almost completely withered)) | 4 (Herbicidal ratio of 70% or higher and lower than 90%) | 2 (Herbicidal ratio of 20% or higher and lower than 40%) | 1 (Herbicidal ratio of 5% or higher and lower than 20%) | 0 (Herbicidal ratio of 5% or lower (almost no effect)) | 5 (Herbicidal ratio of 90% or more (almost completely withered)) | 4 (Herbicidal ratio of 70% or higher and lower than 90%)
